Results from patent publication US11312719B2, “9-substituted amino triazolo quinazoline derivatives as adenosine receptor antagonists, pharmaceutical compositions and their use” (Merck Sharp & Dohme Corp., priority 2018, dated 2022).

Experiments:
[1] = target: human A2b adenosine receptor (Homo sapiens (Human), UniProt P29275); assay: A2b radioligand filtration binding assay; conditions: for IC50: membranes from HEK293 cells expressing human A2b receptor
Method: Measurement of A2b Binding Affinity
The reported affinity of the compounds of the invention for the human A2b adenosine receptor was determined experimentally using a radioligand filtration binding assay. This assay measures the amount of binding of a tritiated proprietary A2b receptor antagonist, in the presence and absence of a compound of the invention, to membranes made from HEK293 cells recombinantly expressing the human A2b adenosine receptor (Perkin Elmer, Cat. No. ES-013-C).
148 μL (135 μg/mL) membranes and 2 μL test compounds were transferred to individual wells of a 96-well polypropylene assay plate and incubated for 15 to 30 minutes at room temperature with agitation. Tritiated radioligand was diluted to a concentration of 14 nM in assay buffer (phosphate buffered saline without Magnesium and Calcium, pH 7.4; GE Healthcare Life Sciences, Cat. No. SH30256.01) and then 50 μL of the solution were transferred to each well of the assay plate. To define total and non-specific binding, wells containing 1% DMSO and 20 μM N-ethylcarboxamidoadenosine (Tocris Bioscience, Cat. No. 1691) respectively, were also included. The wells of the assay plate were incubated at room temperature for 60 minutes with agitation, then filtered using a FilterMate Harvester® (Perkin Elmer) or similar equipment through a UniFilter-96® PEI coated plate (Perkin Elmer Cat. No. 6005274 or 6005277). Filtering was achieved by aspirating the contents of the assay plate for 5 seconds, then washing and aspirating the contents three times with ice-cooled wash buffer (assay buffer supplemented with 0.0025% Brij58) and allowing the vacuum manifold to dry the plate for 30 seconds. The filter plate was incubated for at least 1 hour at 55° C. and allowed to dry. The bottom of the filter plate was then sealed with backing tape. 40 μL Ultima Gold™ (Perkin Elmer, Cat. No. 6013329) was added to each well of the filter plate and the top of the plate was sealed with TopSeal-A PLUS® clear plate seal (Perkin Elmer, Cat. No. 6050185). The plates were then incubated for at least 20 minutes, and then the amount of radioactivity remaining in each well was determined using a TopCount® (Perkin Elmer) scintillation counter. After normalization to total and non-specific binding, the percent effect at each compound concentration was calculated. The plot of percent effect versus the log of compound concentration was analyzed electronically using a 4-parameter logistic fit based on the Levenberg-Marquardt algorithm to generate IC50 values.

[2] = target: human A2a adenosine receptor (Homo sapiens (Human), UniProt P29274); assay: A2a receptor affinity radioligand binding assay ([3H] SCH58261); conditions: membranes from HEK293 or CHO cells expressing human A2a receptor
Method: The A2a receptor affinity binding assay measured the amount of binding of a tritiated ligand with high affinity for the A2a adenosine receptor to membranes made from HEK293 or CHO cells recombinantly expressing the human A2a adenosine receptor, in the presence of varying concentrations of a compound of the invention.
Measurement of A2a Binding Affinity Using Radioligand Binding
148 μL (5 μg/mL) membranes (Perkin Elmer, Cat. No. RBHA2aM400UA) and 2 μL compounds of the invention to be tested (test compound) were transferred to individual wells of a 96-well polypropylene assay plate and incubated for 15 to 30 minutes at room temperature. [^3H] SCH58261 ((7-(2-phenylethyl)-5-amino-2-(2-furyl)-pyrazolo-[4,3-e]-1,2,4-triazolo[1,5-c]pyrimidine)) was diluted in assay buffer (50 mM Tris pH 7.4, 10 mM MgCl2, 0.005% Tween20) to a concentration of 4 nM and 50 μL transferred to each well of the assay plate. To define total and non-specific binding, wells containing 1% DMSO and 1 μM ZM241385 (Tocris Bioscience, Cat. No. 1036) respectively, were also included. The assay plate was incubated at room temperature for 60 minutes with agitation. Using a FilterMate Harvester® (Perkin Elmer), the contents of the assay plate were filtered through a UniFilter-96® PEI coated plate (Perkin Elmer Cat. No. 6005274 or 6005277). Filtering was achieved by aspirating the contents of the assay plate for 5 seconds, then washing and aspirating the contents three times with ice-cooled wash buffer (50 mM Tris-HCl pH 7.4, 150 mM NaCl) and allowing the vacuum manifold to dry the plate for 30 seconds. The filter plate was incubated for at least 1 hour at 55° C., and allowed to dry. The bottom of the filter plate was sealed with backing tape. 40 μL Ultima Gold™ (Perkin Elmer, Cat. No. 6013329) was added to each well of the filter plate and the top of the plate was sealed with TopSeal-A PLUS® clear plate seal (Perkin Elmer, Cat. No. 6050185). The plate was incubated for at least 20 minutes, and then the amount of radioactivity remaining in each well was determined using a TopCount® (Perkin Elmer) scintillation counter. After normalization to total and non-specific binding, the percent effect at each compound concentration was calculated. The plot of percent effect versus the log of compound concentration was analyzed electronically using a 4-parameter logistic fit based on the Levenberg-Marquardt algorithm to generate IC50 values.

Chain of human A2b adenosine receptor (P29275 whole entry): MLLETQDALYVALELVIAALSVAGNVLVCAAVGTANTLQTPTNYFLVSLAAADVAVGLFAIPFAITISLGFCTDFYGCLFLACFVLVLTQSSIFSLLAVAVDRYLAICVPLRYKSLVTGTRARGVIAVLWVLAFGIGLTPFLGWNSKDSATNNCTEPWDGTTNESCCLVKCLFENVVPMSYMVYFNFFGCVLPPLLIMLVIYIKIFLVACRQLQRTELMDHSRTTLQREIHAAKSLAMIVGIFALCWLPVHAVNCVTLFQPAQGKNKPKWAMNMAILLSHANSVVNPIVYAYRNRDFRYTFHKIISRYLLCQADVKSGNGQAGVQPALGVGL
Chain of human A2a adenosine receptor (P29274 whole entry): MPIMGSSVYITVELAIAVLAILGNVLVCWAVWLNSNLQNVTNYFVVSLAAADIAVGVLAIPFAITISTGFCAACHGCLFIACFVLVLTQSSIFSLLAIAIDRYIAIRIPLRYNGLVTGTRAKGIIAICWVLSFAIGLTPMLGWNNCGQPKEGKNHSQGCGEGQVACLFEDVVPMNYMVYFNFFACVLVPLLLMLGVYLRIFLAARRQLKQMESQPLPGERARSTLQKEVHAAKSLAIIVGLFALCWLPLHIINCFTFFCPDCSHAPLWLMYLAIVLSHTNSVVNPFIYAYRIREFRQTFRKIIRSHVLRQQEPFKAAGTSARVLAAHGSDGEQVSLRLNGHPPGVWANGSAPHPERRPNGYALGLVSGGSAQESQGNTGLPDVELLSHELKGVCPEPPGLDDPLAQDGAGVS

Compound | IC50 [1] [nM] | IC50 [2] [nM] | A2B binding % Inh. @ 10000 nM [1] [% Inh.]
COc1cc(F)cc2c1nc(N)n1nc([C@H]3C[C@H](F)CN(c4cnn(CC(C)(C)O)c4)C3)nc21 (single isomer, unassigned) [Example 75, 1-(4-((3S,5S or 3R,5R)-3-(5-amino-9-fluoro-7-methoxy-[1,2,4]triazolo[1,5-c]quinazolin-2-yl)-5-fluoropiperidin-1-yl)-1H-pyrazol-1-yl)-2-methylpropan-2-ol] |  | 56.9 | 54
COc1cc(F)cc2c1nc(N)n1nc(C3CC(F)CN(c4cn(CC(C)(C)O)nc4C)C3)nc21 (single isomer, unassigned) [Example 76, 1-(4-((3R,5R or 3S,5S)-3-(5-amino-9-fluoro-7-methoxy-[1,2,4]triazolo[1,5-c]quinazolin-2-yl)-5-fluoropiperidin-1-yl)-3-methyl-1H-pyrazol-1-yl)-2-methylpropan-2-ol] |  | 256 | 34
COc1cc(F)cc2c1nc(N)n1nc(C3CC(F)CN(c4cnn(CC5(O)CCC5)c4)C3)nc21 (single isomer, unassigned) [Example 79, 1-(4-((3S,5S or 3R,5R)-3-(5-amino-9-fluoro-7-methoxy-[1,2,4]triazolo[1,5-c]quinazolin-2-yl)-5-fluoropiperidin-1-yl)-1H-pyrazol-1-yl)methyl)cyclobutan-1-ol] | 3140 | 16 | 
COc1cc2nc(N)n3nc([C@@H]4C[C@@H](F)CN(c5cnn(CC(C)(C)O)c5)C4)nc3c2cc1F (single isomer, unassigned) [Example 80, 1-(4-((3R,5R or 3S,5S)-3-(5-amino-9-fluoro-8-methoxy-[1,2,4]triazolo[1,5-c]quinazolin-2-yl)-5-fluoropiperidin-1-yl)-1H-pyrazol-1-yl)-2-methylpropan-2-ol] | 404 | 11.6 | 
COc1cc2nc(N)n3nc([C@H]4C[C@H](F)CN(c5cnn(CC(C)(C)O)c5)C4)nc3c2cc1F (single isomer, unassigned) [Example 81, 1-(4-((3S,5S or 3R,5R)-3-(5-amino-9-fluoro-8-methoxy-[1,2,4]triazolo[1,5-c]quinazolin-2-yl)-5-fluoropiperidin-1-yl)-1H-pyrazol-1-yl)-2-methylpropan-2-ol] | 6580 | 121 | 
COc1cc2nc(N)n3nc([C@@H]4CCCN(c5cnn([C@@H]6CCC[C@@]6(C)O)c5)C4)nc3c2cc1F (single isomer, unassigned) [Example 82, (1R or 1S,2R or 2S)-2-(4-((R)-3-(5-amino-9-fluoro-8-methoxy-[1,2,4]triazolo[1,5-c]quinazolin-2-yl)piperidin-1-yl)-1H-pyrazol-1-yl)-1-methylcyclopentan-1-ol] | 63 | 4.9 | 
COc1cc2nc(N)n3nc([C@@H]4CCCN(c5cnn([C@H]6CCC[C@]6(C)O)c5)C4)nc3c2cc1F (single isomer, unassigned) [Example 83, (1S or 1R,2S or 2R)-2-(4-((R)-3-(5-amino-9-fluoro-8-methoxy-[1,2,4]triazolo[1,5-c]quinazolin-2-yl)piperidin-1-yl)-1H-pyrazol-1-yl)-1-methylcyclopentan-1-ol] | 113 | 2.7 | 
COc1cc2nc(N)n3nc([C@@H]4CCCN(c5cnn(C6CCCC6O)c5)C4)nc3c2cc1F (single isomer, unassigned) [Example 84, (1R or 1S,2R or 2S)-2-(4-((R)-3-(5-amino-9-fluoro-8-methoxy-[1,2,4]triazolo[1,5-c]quinazolin-2-yl)piperidin-1-yl)-1H-pyrazol-1-yl)cyclopentan-1-ol] | 117 | 2.3 | 
COc1cc2nc(N)n3nc([C@@H]4CCCN(c5cnn(C6CCCC6O)c5)C4)nc3c2cc1F (single isomer, unassigned) [Example 85, (1S or 1R,2S or 2R)-2-(4-((R)-3-(5-amino-9-fluoro-8-methoxy-[1,2,4]triazolo[1,5-c]quinazolin-2-yl)piperidin-1-yl)-1H-pyrazol-1-yl)cyclopentan-1-ol] | 192 | 5.2 | 

Compounds with a lower IC50 [2], results first:

IC50 [1] [nM] | IC50 [2] [nM] | A2B binding % Inh. @ 10000 nM [1] [% Inh.] | Compound
153 | 0.9 |  | COc1cc(F)cc2c1nc(N)n1nc([C@@H]3C[C@@H](F)CN(c4cnn(CC(C)(C)O)c4)C3)nc21 (single isomer, unassigned) [Example 74, 1-(4-((3R,5R or 3S,5S)-3-(5-amino-9-fluoro-7-methoxy-[1,2,4]triazolo[1,5-c]quinazolin-2-yl)-5-fluoropiperidin-1-yl)-1H-pyrazol-1-yl)-2-methylpropan-2-ol]
234 | 0.9 |  | COc1cc(F)cc2c1nc(N)n1nc(C3CC(F)CN(c4cnn(CC5(O)CCC5)c4)C3)nc21 (single isomer, unassigned) [Example 78, 1-(4-((3R,5R or 3S,5S)-3-(5-amino-9-fluoro-7-methoxy-[1,2,4]triazolo[1,5-c]quinazolin-2-yl)-5-fluoropiperidin-1-yl)-1H-pyrazol-1-yl)methyl)cyclobutan-1-ol]
108 | 0.4 |  | COc1cc(F)cc2c1nc(N)n1nc(C3CC(F)CN(c4cn(CC(C)(C)O)nc4C)C3)nc21 (single isomer, unassigned) [Example 77, 1-(4-((3S,5S or 3R,5R)-3-(5-amino-9-fluoro-7-methoxy-[1,2,4]triazolo[1,5-c]quinazolin-2-yl)-5-fluoropiperidin-1-yl)-3-methyl-1H-pyrazol-1-yl)-2-methylpropan-2-ol]
134 | 0.4 |  | COc1cc(F)cc2c1nc(N)n1nc([C@@H]3CCCN(c4cn(C(C)C(C)(C)O)nc4C)C3)nc21 (single isomer, unassigned) [Example 87, (R or S)-3-(4-((R)-3-(5-amino-9-fluoro-7-methoxy-[1,2,4]triazolo[1,5-c]quinazolin-2-yl)piperidin-1-yl)-3-methyl-1H-pyrazol-1-yl)-2-methylbutan-2-ol]
165 | 0.3 |  | COc1cc(F)cc2c1nc(N)n1nc([C@@H]3CCCN(c4cn(C(C)C(C)(C)O)nc4C)C3)nc21 (single isomer, unassigned) [Example 86, (S or R)-3-(4-((R)-3-(5-amino-9-fluoro-7-methoxy-[1,2,4]triazolo[1,5-c]quinazolin-2-yl)piperidin-1-yl)-3-methyl-1H-pyrazol-1-yl)-2-methylbutan-2-ol]
1.8 | 0.1 |  | COc1cc2nc(N)n3nc(C4CCC(C)N(c5cnn(C6CCCC6O)c5)C4)nc3c2cc1F (single isomer, unassigned) [Example 88, (1R or 1S,2R or 2S)-2-(4-((2S,5R or 2R,5S)-5-(5-amino-9-fluoro-8-methoxy-[1,2,4]triazolo[1,5-c]quinazolin-2-yl)-2-methylpiperidin-1-yl)-1H-pyrazol-1-yl)cyclopentan-1-ol]
